The results in this text go back to patent US11136349.

The conditions of this data set: other bond.

Where two headings read alike, the source gives them in different places.

For the molecule `CC(C)C[C@@H]1NC(=O)[C@H](CCC(=O)OC(C)(C)C)NC(=O)[C@@H]2CCCN2C(=O)[C@H](C)NC(=O)[C@H](Cc2ccccc2)NC(=O)CCCNC(=O)[C@H](C)NC(=O)[C@H](Cc2ccccc2)NC1=O` [cyclo-[Aba-Phe-Leu-Ala-Phe]], where the note is “from acryloyl-Phe-Ala-Pro-Glu(OtBu)-Leu-Phe-Ala-Gly-OH, 26-membered ring, Ir[dF(CF3)ppy]2(dtbbpy)PF6/K2HPO4/blue LED, DMF, 5.0 mM”, the ring closure, conversion stood at 61%.

For the molecule `CC(C)C[C@@H]1NC(=O)[C@H](Cc2ccccc2)NC(=O)CCCNC(=O)[C@H](Cc2cn(C(c3ccccc3)(c3ccccc3)c3ccccc3)cn2)NC(=O)[C@H](C)NC1=O` [cyclo-[Aba-Phe-Leu-Ala-His(Trt)]], the ring closure, conversion (from acryloyl-Phe-Leu-Ala-His(Trt)-Gly-OH, 17-membered ring, Ir[dF(CF3)ppy]2(dtbbpy)PF6/K2HPO4/blue LED, DMF, 1.0 mM) stood at 65%.

For the molecule “cyclo-[Aba-Ala-Leu-Pbe-Lys(Boc)-Pro-Ala-Phe-Ala-Leu-Pro-Glu(OBu)-Leu-Phe-VaI]”, the ring closure, conversion (47-membered ring, Ir[dF(CF3)ppy]2(dtbbpy)PF6/K2HPO4/blue LED, DMF, 0.25 mM) was determined as 60%.

Where the note is “from acryloyl-Phe-Pra-Ala-Lys(Boc)-Gly-OH, 17-membered ring, Ir[dF(CF3)ppy]2(dtbbpy)PF6/K2HPO4/blue LED, DMF, 5.0 mM”, `C#CC[C@@H]1NC(=O)[C@H](Cc2ccccc2)NC(=O)CCCNC(=O)[C@H](CCCCNC(=O)OC(C)(C)C)NC(=O)[C@H](C)NC1=O` [cyclo-[Aba-Phe-Pra-Ala-Lys(Boc)]] registered a ring closure, conversion of 82%.

As for `CC(C)C[C@@H]1NC(=O)[C@H](Cc2ccccc2)NC(=O)C(c2ccccc2)CCNC(=O)[C@H](Cc2ccccc2)NC(=O)[C@H](C)NC1=O` (stereo partly drawn) [cyclo-[Aba(2-Ph)-Phe-Le-Ala-Phe]], the ring closure, conversion (from α-phenylacryloyl-Phe-Leu-Ala-Phe-Gly-OH, 17-membered ring, Ir[dF(CF3)ppy]2(dtbbpy)PF6/K2HPO4/blue LED, DMF, 2.5 mM) was 95%.

The molecule `CSCC[C@@H]1NC(=O)[C@H](Cc2ccccc2)NC(=O)CCCNC(=O)[C@H](CCC(=O)OC(C)(C)C)NC(=O)[C@H](CC(C)C)NC1=O` [cyclo-[Aba-Phe-Met-Leu-Glu(OtBu)]] displayed a ring closure, conversion (from acryloyl-Phe-Met-Leu-Glu(tBu)-Gly-OH, 17-membered ring, Ir[dF(CF3)ppy]2(dtbbpy)PF6/K2HPO4/TRIP-SH/blue LED, DMF, 2.5 mM) of 40%.

The molecule `CC(C)C[C@@H]1NC(=O)[C@H](Cc2ccccc2)NC(=O)CCC(CCC(=O)O)NC(=O)[C@H](Cc2ccccc2)NC(=O)[C@H](C)NC1=O` (stereo partly drawn) [cyclo-[Ahda-Phe-Leu-Ala-Phe]] registered a ring closure, conversion (from acryloyl-Phe-Leu-Ala-Phe-Glu-OH, 17-membered ring, Ir[dF(CF3)ppy]2(dtbbpy)PF6/K2HPO4/blue LED, DMF, 2.5 mM) of 38%.

Molecule `CC(C)C[C@@H]1NC(=O)[C@H](Cc2ccc(OC(C)(C)C)cc2)NC(=O)[C@H](C(C)C)NC(=O)[C@H]([C@@H](C)OC(C)(C)C)NC(=O)[C@H](C)NC(=O)[C@@H]2CCCN2C(=O)[C@H](CC(C)C)NC(=O)[C@H](Cc2ccccc2)NC(=O)[C@H](C)NC(=O)CCCNC1=O` [cyclo-[Aba-Ala-Phe-Leu-Pro-Ala-Thr(tBu)-Val-Tyr(tBu)-Leu]] yielded a ring closure, conversion (from acryloyl-Ala-Phe-Leu-Pro-Ala-Thr(tBu)-Val-Tyr(tBu)-Leu-Gly-OH, 32-membered ring, Ir[dF(CF3)ppy]2(dtbbpy)PF6/K2HPO4/blue LED, DMF, 2.5 mM) of 64%.

In the case of `CC(C)C[C@@H]1NC(=O)[C@H](Cc2ccccc2)NC(=O)CCC2(CC2)NC(=O)[C@H](Cc2ccccc2)NC(=O)[C@H](C)NC1=O` [cyclo[(3-Ac)pa-Phe-Leu-Ala-Phe]], for the setting “from acryloyl-Phe-Leu-Ala-Phe-Acc-OH, 17-membered ring, Ir[dF(CF3)ppy]2(dtbbpy)PF6/K2HPO4/blue LED, DMSO, 2.5 mM”, the ring closure, conversion was determined as 48%.

As to `CC(C)C[C@@H]1NC(=O)[C@H](Cc2ccccc2)NC(=O)CCCNC(=O)[C@H](Cc2ccccc2)NC(=O)[C@H](C)NC1=O` [cyclo-[Aba-Phe-Leu-Ala-Phe]], where the note is “from acryloyl-Phe-Leu-Ala-Phe-Gly-OH, 17-membered ring, Ir[dF(CF3)ppy]2(dtbbpy)PF6/K2HPO4/blue LED, DMF, 2.5 mM”, the ring closure, conversion was determined as 93%.

For the molecule `CC(C)[C@@H]1NC(=O)CCCNC(=O)[C@H](Cc2cn(C(=O)OC(C)(C)C)c3ccccc23)NC(=O)[C@H](Cc2ccccc2)NC(=O)[C@H]([C@@H](C)OC(C)(C)C)NC1=O` [cyclo-[Aba-Val-Thr(tBu)-Phe-Trp(Boc)], where the note is “from acryloyl-Val-Thr(tBu)-Phe-Trp(Boc)-Gly-OH, 17-membered ring, Ir[dF(CF3)ppy]2(dtbbpy)PF6/K2HPO4/blue LED, DMF, 2.5 mM”, the ring closure, conversion turned out to be 56%.

Molecule `CC(C)C[C@@H]1NC(=O)[C@H](Cc2ccccc2)NC(=O)CCCNC(=O)[C@H](Cc2ccc(Br)cc2)NC(=O)[C@H](C)NC1=O` [cyclo-[Aba-Phe-Leu-Ai-Phe(4-Br)]] gave a ring closure, conversion (from acryloyl-Phe-Leu-Ala-Phe(4-Br)-Gly-OH, 17-membered ring, Ir[dF(CF3)ppy]2(dtbbpy)PF6/K2HPO4/TRIP-SH/blue LED, DMF, 2.5 mM) of 48%.

In the case of `CC(C)[C@@H]1NC(=O)[C@H](Cc2ccc(OC(C)(C)C)cc2)NC(=O)[C@H](C)N(C)C(=O)[C@H](Cc2ccccc2)NC(=O)CCCNC1=O` [cyclo-[Aba-Phe-(Me)Ala-Tyr(tBu)-Val]], the ring closure, conversion (from acryloyl-Phe-MeAla-Tyr(tBu)-Val-Gly-OH, 17-membered ring, Ir[dF(CF3)ppy]2(dtbbpy)PF6/K2HPO4/blue LED, DMF, 5.0 mM) worked out at 66%.

For the setting “from acryloyl-Phe-Arg(Boc)2-Ala-Ser(tBu)-Gly-OH, 17-membered ring, Ir[dF(CF3)ppy]2(dtbbpy)PF6/K2HPO4/TRIP-SH/blue LED, DMF, 2.5 mM”, `C[C@@H]1NC(=O)[C@H](CCCNC(=NC(=O)OC(C)(C)C)NC(=O)OC(C)(C)C)NC(=O)[C@H](Cc2ccccc2)NC(=O)CCCNC(=O)[C@H](COC(C)(C)C)NC1=O` [cyclo-[Aha-Phe-Arg(Bo)2-Ser(tBu)-Ala]] showed a ring closure, conversion of 59%.

Where the note is “from acryloyl-Phe-Leu-Ala-Phe-MeLeu-OH, 17-membered ring, Ir[dF(CF3)ppy]2(dtbbpy)PF6/K2HPO4/blue LED, DMF, 5.0 mM”, `CC(C)CC1CCC(=O)N[C@@H](Cc2ccccc2)C(=O)N[C@@H](CC(C)C)C(=O)N[C@@H](C)C(=O)N[C@@H](Cc2ccccc2)C(=O)N1C` (stereo partly drawn) [cyclo-[(Me)Aba(4-iBu)-Phe-Leu-Ala-Phe]] registered a ring closure, conversion of 77%.

On to `C[C@@H]1NC(=O)CCCNC(=O)[C@H](Cc2ccc(OC(C)(C)C)cc2)NC1=O` [cyclo-[Aha-Ala-Tyr(tBu)]], for which, under “from acryloyl-Ala-Tyr(tBu)-Gly-OH, 11-membered ring, Ir[dF(CF3)ppy]2(dtbbpy)PF6/K2HPO4/TRIP-SH/blue LED, DMF, 1.0 mM”, the ring closure, conversion is 24%.

For `CC(C)C[C@@H]1NC(=O)[C@H](CCC(=O)NC(c2ccccc2)(c2ccccc2)c2ccccc2)NC(=O)[C@H](Cc2ccccc2)NC(=O)CCCNC(=O)[C@H](CCCCNC(=O)OC(C)(C)C)NC1=O` [cyclo-[Aba-Phe-Gln(Trt)-Leu-Lys(Boc)]], the ring closure, conversion (from acryloyl-Phe-Gln(Trt)-Leu-Lys(Boc)-Gly-OH, 17-membered ring, Ir[dF(CF3)ppy]2(dtbbpy)PF6/K2HPO4/blue LED, DMF, 2.5 mM) is 94%.

In turn, `CC(C)C[C@@H]1NC(=O)[C@H](Cc2ccccc2)NC(=O)CCC2(CCCC2)NC(=O)[C@H](Cc2ccccc2)NC(=O)[C@H](C)NC1=O` [cyclo[(3-Aep)pa-Phe-[Leu-Aa-Phe]] came in with a ring closure, conversion (from acryloyl-Phe-Leu-Ala-Phe-Aepe-OH, 17-membered ring, Ir[dF(CF3)ppy]2(dtbbpy)PF6/K2HPO4/blue LED, DMSO, 2.5 mM) of 49%.
